Source: patent US8506984B2, “Therapeutic agent elution control process” (Cordis Corporation, priority 2006, dated 2013)

What was measured:
[1] = Drug concentration in liquid formulations (liquid chromatography / HPLC); assay type: physicochemical; settings: Vitamin E TPGS excipient, water and ethanol (<2%) co-solvents
Source text: In accordance with exemplary embodiments of the present invention, a series of liquid formulations were developed for the local or regional delivery of water insoluble compounds such as sirolimus and its analogs, including CCI-779, ABT-578 and everolimus, through weeping balloons and catheter injection needles. […] These liquid formulations increase the apparent solubility of the pharmacologically active but water insoluble compounds by two to four orders of magnitude as compared to the solubility limits of the compounds in water. These liquid formulations rely on the use of a very small amount of organic solvents such as Ethanol (typically less than two percent) and a larger amount of safe amphiphilic (of or relating to a molecule having a polar, water soluble group attached to a non-polar, water insoluble […]) excipients such as polyethylene glycol (PEG 200, PEG 400) and vitamin E TPGS to enhance the solubility of the compounds. These liquid formulations of highly water insoluble compounds are stable and readily flowable at room temperature. Certain excipients, such as Vitamin E TPGS and BHT may be utilized to enhance the storage stability of sirolimus compounds through their anti-oxidation properties. […]

[2] = test system: human coronary artery smooth muscle cells; assay: Proliferation of non-synchronized cultured human coronary artery smooth muscle cells stimulated with two percent fetal bovine serum; assay type: cell-based; settings: for effect of added agent on anti-proliferative rapamycin dose response: added to rapamycin-treated cells
Source text: The multiple curves represent various concentrations of mycophenolic acid ranging from zero to one thousand nanomolar concentrations. […] This potentiation observed in cultured coronary artery smooth muscle cells preferably translates to an enhancement in anti-restenotic efficacy following vascular injury and a reduction in the required amount of either agent to achieve the desired anti-restenotic effect.
FIG. 58 illustrates, in graphical format, the anti-proliferative activity of cladribine in non-synchronized cultured human coronary artery smooth muscle cells stimulated with two percent fetal bovine serum.
The multiple curves represent various concentrations of cladribine ranging from zero to nine hundred nanomolar concentrations. […] As illustrated, the percent inhibition increases substantially as the dose of cladribine increases.

cell viability = assay: Cell viability assay; assay type: cell-based
Source text: (§1) The multiple curves represent various concentrations of topotecan ranging from zero to three hundred nanomolar concentrations.
(§2) The multiple curves represent various concentrations of etoposide ranging from zero to eight hundred nanomolar concentrations.

[3] = test system: human coronary artery smooth muscle cells; assay: Proliferation of synchronized cultured human coronary artery smooth muscle cells stimulated with two percent fetal bovine serum; assay type: cell-based; settings: for effect of added agent on anti-proliferative rapamycin dose response: added to rapamycin-treated cells
Source text: as §1, §2
The multiple curves represent various concentrations of Panzem® ranging from zero to 100 micromolar concentrations.

[4] = test system: human coronary artery smooth muscle cell; assay: MTS cytotoxicity assay; assay type: cell-based; settings: concentrations up to 30,000.00 nanomolar
Source text: Typically, a control is utilized to determine baseline toxicity.

[5] = Porcine drug elution PK study of dual drug eluting stent; assay type: in vivo; settings: after eight (8) days of implantation; single-layer sirolimus/cilostazol coating (FIG. 83), 100 μg BMA overcoat
Source text: Another critical parameter for the performance of the thrombus resistance of a device coated with cilostazol is the duration of the drug release from the coating. This is of particular significance in the two weeks after device implantation. In the porcine drug elution PK studies of the dual drug eluting coating, both cilostazol and sirolius were slowly released from the coating, resulting in a sustained drug release profile. The purpose of the porcine PK study is to assess the local pharmacokinetics of a drug eluting stent at a given implantation time. Normally three stents are implanted in three different coronary arteries in a pig for a given time point and then retrieved for total drug recovery analysis. The stents are retrieved at predetermined time points; namely, 1, 3 and 8 days. The stents are extracted and the total amount of drug remaining on the stents is determined by analysis utilizing HPLC (high performance liquid chromatography) for total drug amount. The difference between the original amount of drug on the stent and the amount of drug retrieved at a given time represents the amount of drug released in that period. The continuous release of drug into surrounding arterial tissue is what prevents the neointimal growth and restenosis in the coronary artery. A normal plot represents the percentage of total drug released (%, y-axis) vs. time of implantation (day, x-axis). […]

[6] = In vitro release from sirolimus/cilostazol single layer stent coating; assay type: physicochemical; settings: single-layer sirolimus/cilostazol coating (FIG. 83)
[7] = test system: human coronary artery smooth muscle cell; assay: Human coronary artery smooth muscle cell proliferation, in vitro cell culture study (trichostatin A); assay type: cell-based
Source text: FIG. 51 is a graph of the inhibition of coronary artery smooth muscle cells by trichostatin A in a cell culture study.

tumor cell lines = settings: cited from earlier work

## CO[C@H]1C[C@@H]2CC[C@@H](C)[C@@](O)(O2)C(=O)C(=O)N2CCCC[C@H]2C(=O)O[C@H]([C@H](C)C[C@@H]2CC[C@@H](OC(=O)C(C)(CO)CO)[C@H](OC)C2)CC(=O)[C@H](C)/C=C(\C)[C@@H](O)[C@@H](OC)C(=O)[C@H](C)C[C@H](C)/C=C/C=C/C=C/1C [CCI-779]
[1]
  concentration in the final solution (HPLC assay): 15 mg/mL

## Nc1nc(Cl)nc2c1ncn2[C@H]1C[C@H](O)[C@@H](CO)O1 [Cladribine, 2-chlorodeoxyadenosine]
[2]
  effect of added agent on anti-proliferative rapamycin dose response: potentiate the anti-proliferative activity of rapamycin
[2]; two percent fetal bovine serum
  inhibition of human coronary artery smooth muscle cell proliferation: completely inhibits

## CC[C@@]1(O)C(=O)OCc2c1cc1n(c2=O)Cc2cc3c(CN(C)C)c(O)ccc3nc2-1 [topotecan]
Cell viability; concentrations up to one micromolar
  cytotoxicity in cell viability assay: non-cytotoxic
[3]
  effect of added agent on anti-proliferative rapamycin dose response: potentiate the anti-proliferative activity of rapamycin

## COc1cc([C@@H]2c3cc4c(cc3[C@@H](O[C@@H]3O[C@@H]5CO[C@@H](C)O[C@H]5[C@H](O)[C@H]3O)[C@H]3COC(=O)[C@H]23)OCO4)cc(OC)c1O [etoposide]
[2]
  effect of added agent on anti-proliferative rapamycin dose response: potentiate the anti-proliferative activity of rapamycin
Cell viability; concentrations up to ten micromolar
  cytotoxicity in cell viability assay: non-cytotoxic

## COc1c(C)c2c(c(O)c1C/C=C(\C)CCC(=O)O)C(=O)OC2 [mycophenolic acid]
[2]
  effect of added agent on anti-proliferative rapamycin dose response: potentiates the anti-proliferative activity of rapamycin

## COc1cc2c(cc1O)CC[C@@H]1[C@@H]2CC[C@]2(C)[C@@H](O)CC[C@@H]12 [Panzem®, 2-methoxyestradiol]
[4]
  human coronary artery smooth muscle cell survival (MTS): do not reduce human coronary artery smooth muscle cell survival
[3]
  effect of added agent on anti-proliferative rapamycin dose response: increases the percent of inhibition of rapamycin alone
[3]; two percent fetal bovine serum
  inhibition of human coronary artery smooth muscle cell proliferation in vitro: extremely effective inhibitor

## CO[C@H]1C[C@@H]2CC[C@@H](C)[C@@](O)(O2)C(=O)C(=O)N2CCCC[C@H]2C(=O)O[C@H]([C@H](C)C[C@@H]2CC[C@@H](O)[C@H](OC)C2)CC(=O)[C@H](C)/C=C(\C)[C@@H](O)[C@@H](OC)C(=O)[C@H](C)C[C@H](C)/C=C/C=C/C=C/1C [Rapamycin, rapamycin]
[5]
  drug remaining in the drug coating: ~80%

## O=C1CCc2cc(OCCCCc3nnnn3C3CCCCC3)ccc2N1 [cilostazol, 6[4-(1-cyclohexyl-1H-tetrazol-5-yl)-butoxy]-3,4-dihydro-2-(1H)-quinolinone]
[5]
  drug remaining in the drug coating: ~80%
[6]
  in vitro release: ~35%

## CC(/C=C/C(=O)NO)=C\[C@@H](C)C(=O)c1ccc(N(C)C)cc1 [trichostatin A]
[7]
  inhibition of human coronary artery smooth muscle cell proliferation: completely inhibit
[7]; read-out: anti-proliferative IC50
  IC50: ~6 nM
Tumor cell lines
  anti-proliferative IC50: low nM range
